Patent publication US10294202B2, “Pyrrolidinones as herbicides” (FMC Corporation, priority 2013, dated 2019)

How the values were obtained:
barnyardgrass [1] = assay: Test A pre-/postemergence herbicide test; type: in vivo, Echinochloa crus-galli
Method in brief: (§1)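 Scoring was visual, relative to untreated controls, on a 0–100 scale after about 10 greenhouse days. Preemergence treatment used a directed soil spray over seeded loam/sand; postemergence treatment targeted one- to two-leaf plants of 2–10 cm.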

kochia = assay: Test A pre-/postemergence herbicide test; type: in vivo, Kochia scoparia; settings: for Plant response rating, Kochia: 0 to 100 scale
Method in brief: as §1

ragweed = assay: Test A pre-/postemergence herbicide test; type: in vivo, Ambrosia elatior; settings: for Plant response rating, Ragweed: 0 to 100 scale
Method in brief: as §1

ryegrass, Italian = assay: Test A pre-/postemergence herbicide test; type: in vivo, Lolium multiflorum; settings: for Plant response rating, Ryegrass, Italian: 0 to 100 scale
Method in brief: as §1

giant foxtail = assay: Test A pre-/postemergence herbicide test; type: in vivo, Setaria faberii; settings: for Plant response rating, Foxtail, Giant: 0 to 100 scale
Method in brief: as §1

pigweed = assay: Test A pre-/postemergence herbicide test; type: in vivo, Amaranthus retroflexus; settings: for Plant response rating, Pigweed: 0 to 100 scale
Method in brief: as §1

wheat = assay: Test A pre-/postemergence herbicide test; type: in vivo, Triticum aestivum; settings: Postemergence; for Plant response rating, Wheat: 125 g ai/ha, 0 to 100 scale, 0 no effect, 100 complete control; for Wheat plant response rating (0 to 100 scale, 0 is no effect, 100 is complete control): 500 g ai/ha
Method in brief: as §1

corn = assay: Test A pre-/postemergence herbicide test; type: in vivo, Zea mays; settings: Postemergence
Method in brief: as §1

blackgrass = assay: Test A postemergence herbicide test; type: in vivo, Alopecurus myosuroides
Method in brief: (§2)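 Blackgrass and galium grown in pots of loam soil–sand blend, treated postemergence at 2–10 cm height, one- to two-leaf stage. Plants kept in greenhouse ~10 days, then visually rated for injury against untreated controls on a 0–100 scale (0 no effect, 100 complete control).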

galium = assay: Test A postemergence herbicide test; type: in vivo, Galium aparine; settings: for Plant response rating, Galium: 125 g ai/ha, 0 to 100 scale, 0 no effect, 100 complete control; for Galium plant response rating (0 to 100 scale, 0 is no effect, 100 is complete control): 500 g ai/ha
Method in brief: as §2

rice = assay: Test B flooded paddy test; type: in vivo, Oryza sativa; settings: 500 g ai/ha, Flood; scale of 0 to 100 where 0 is no effect and 100 is complete control
Method in brief: (§3)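 Paddy-water application at a 3 cm flood, young plants having two leaves. Water level maintained; greenhouse, 13–15 days; visual 0–100 control rating.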

sedge, umbrella = assay: Test B flooded paddy test; type: in vivo, Cyperus difformis; settings: 500 g ai/ha, Flood; scale of 0 to 100 where 0 is no effect and 100 is complete control
Method in brief: as §3

ducksalad = assay: Test B flooded paddy test; type: in vivo, Heteranthera limosa; settings: 500 g ai/ha, Flood; scale of 0 to 100 where 0 is no effect and 100 is complete control
Method in brief: as §3

barnyardgrass [2] = assay: Test B flooded paddy test; type: in vivo, Echinochloa crus-galli; settings: 500 g ai/ha, Flood; scale of 0 to 100 where 0 is no effect and 100 is complete control
Method in brief: as §3

[3] = 125 g ai/ha, visual rating, 0 to 100 scale, 0 no effect, 100 complete control, approximately 10 days, preemergence
[4] = Postemergence, 125 g ai/ha, 0 to 100 scale, 0 no effect, 100 complete control
[5] = Postemergence, 500 g ai/ha, 0 to 100 scale (0 no effect, 100 complete control)
[6] = preemergence, 500 g ai/ha, 0 to 100 scale (0 no effect, 100 complete control)
[7] = 125 g ai/ha, visual rating, 0 no effect, 100 complete control, approximately 10 days, preemergence
[8] = Postemergence, 125 g ai/ha, 0 no effect, 100 complete control
[9] = 125 g ai/ha, 0 to 100 scale, 0 no effect, 100 complete control
[10] = 500 g ai/ha, 0 to 100 scale (0 no effect, 100 complete control)

SMILES | Plant response rating, Barnyardgrass (barnyardgrass [1]; [3]) | Plant response rating, Barnyardgrass (barnyardgrass [1]; [4]) | Plant response rating, Barnyardgrass (barnyardgrass [1]; [6]) | Plant response rating, Kochia (kochia; [7]) | Plant response rating, Kochia (kochia; [8]) | Kochia plant response rating (0 to 100 scale, 0 is no effect, 100 is complete control) (kochia; Postemergence, 500 g ai/ha) | Plant response rating, Kochia (kochia; preemergence, 500 g ai/ha) | Plant response rating, Ragweed (ragweed; [7]) | Plant response rating, Ragweed (ragweed; [8]) | Ragweed plant response rating (0 to 100 scale, 0 is no effect, 100 is complete control) (ragweed; Postemergence, 500 g ai/ha) | Plant response rating, Ragweed (ragweed; preemergence, 500 g ai/ha) | Plant response rating, Ryegrass, Italian (ryegrass, Italian; [7]) | Plant response rating, Ryegrass, Italian (ryegrass, Italian; [8]) | Ryegrass, Italian plant response rating (0 to 100 scale, 0 is no effect, 100 is complete control) (ryegrass, Italian; Postemergence, 500 g ai/ha) | Plant response rating, Ryegrass, Italian (ryegrass, Italian; preemergence, 500 g ai/ha) | Plant response rating, Foxtail, Giant (giant foxtail; [7]) | Plant response rating, Foxtail, Giant (giant foxtail; [8]) | Foxtail, Giant plant response rating (0 to 100 scale, 0 is no effect, 100 is complete control) (giant foxtail; Postemergence, 500 g ai/ha) | Plant response rating, Foxtail, Giant (giant foxtail; preemergence, 500 g ai/ha) | Plant response rating, Pigweed (pigweed; [7]) | other results
O=C1NCC(c2cccc(OC(F)(F)C(F)F)c2)C1C(=O)Nc1ccccc1F (racemic) [Compound 121] | 80 | 70 | 90 | 60 | 50 | 60 | 70 | 70 | 0 | 30 | 70 | 0 | 40 | 50 | 0 | 90 | 80 | 90 | 90 | 50 | Plant response rating, Barnyardgrass (barnyardgrass [1]; [5]): 80; Plant response rating, Pigweed (pigweed; [8]): 0; Pigweed plant response rating (0 to 100 scale, 0 is no effect, 100 is complete control) (pigweed; Postemergence, 500 g ai/ha): 0; Plant response rating, Pigweed (pigweed; preemergence, 500 g ai/ha): 70; Plant response rating, Wheat (wheat): 50; Wheat plant response rating (0 to 100 scale, 0 is no effect, 100 is complete control) (wheat): 60; Plant response rating, Corn (corn; [9]): 50; Plant response rating, Corn (corn; [10]): 70; Plant response rating, Blackgrass (blackgrass; [9]): 60; Plant response rating, Blackgrass (blackgrass; [10]): 70; Plant response rating, Galium (galium): 60; Galium plant response rating (0 to 100 scale, 0 is no effect, 100 is complete control) (galium): 70; Plant response rating, Rice (rice): 35; Plant response rating, Sedge, Umbrella (sedge, umbrella): 0; Plant response rating, Ducksalad (ducksalad): 100; Plant response rating, Barnyardgrass (barnyardgrass [2]): 70
O=C1NCC(c2cccc(OC(F)(F)C(F)F)c2)C1C(=O)Nc1ccc(F)cc1F (racemic) [Compound 122] | 80 | 70 | 90 | 60 | 70 | 70 | 70 | 0 | 30 | 70 | 60 | 0 | 0 | 40 | 0 | 90 | 80 | 80 | 90 | 50 | Plant response rating, Barnyardgrass (barnyardgrass [1]; [5]): 80; Plant response rating, Pigweed (pigweed; [8]): 60; Pigweed plant response rating (0 to 100 scale, 0 is no effect, 100 is complete control) (pigweed; Postemergence, 500 g ai/ha): 80; Plant response rating, Pigweed (pigweed; preemergence, 500 g ai/ha): 80; Plant response rating, Wheat (wheat): 50; Wheat plant response rating (0 to 100 scale, 0 is no effect, 100 is complete control) (wheat): 60; Plant response rating, Corn (corn; [9]): 40; Plant response rating, Corn (corn; [10]): 60; Plant response rating, Blackgrass (blackgrass; [9]): 50; Plant response rating, Blackgrass (blackgrass; [10]): 70; Plant response rating, Galium (galium): 70; Galium plant response rating (0 to 100 scale, 0 is no effect, 100 is complete control) (galium): 80; Plant response rating, Rice (rice): 15; Plant response rating, Sedge, Umbrella (sedge, umbrella): 0; Plant response rating, Ducksalad (ducksalad): 100; Plant response rating, Barnyardgrass (barnyardgrass [2]): 65
O=C1NCC(c2cccc(OC(F)(F)C(F)F)c2)C1C(=O)Nc1ccc(F)c(F)c1F (racemic) [Compound 124] | 70 | 60 | 80 | 60 | 70 | 80 | 70 | 40 | 40 | 70 | 50 | 0 | 30 | 50 | 40 | 80 | 80 | 90 | 90 | 70 | Plant response rating, Barnyardgrass (barnyardgrass [1]; [5]): 70; Plant response rating, Pigweed (pigweed; [8]): 60; Pigweed plant response rating (0 to 100 scale, 0 is no effect, 100 is complete control) (pigweed; Postemergence, 500 g ai/ha): 70; Plant response rating, Pigweed (pigweed; preemergence, 500 g ai/ha): 80; Plant response rating, Wheat (wheat): 30; Wheat plant response rating (0 to 100 scale, 0 is no effect, 100 is complete control) (wheat): 50; Plant response rating, Corn (corn; [9]): 0; Plant response rating, Corn (corn; [10]): 50; Plant response rating, Blackgrass (blackgrass; [9]): 40; Plant response rating, Blackgrass (blackgrass; [10]): 70; Plant response rating, Galium (galium): 70; Galium plant response rating (0 to 100 scale, 0 is no effect, 100 is complete control) (galium): 80; Plant response rating, Rice (rice): 0; Plant response rating, Sedge, Umbrella (sedge, umbrella): 0; Plant response rating, Ducksalad (ducksalad): 100; Plant response rating, Barnyardgrass (barnyardgrass [2]): 40
COc1cc(C2CNC(=O)C2C(=O)Nc2ccccc2Cl)ccc1F (racemic) [Compound 133] | 20 | 30 | 30 | 0 | 0 | 0 | 0 | 0 | 0 | 0 | 0 | 0 | 0 | 0 | 0 | 30 | 20 | 50 | 90 | 0 | Barnyardgrass plant response rating (0 to 100 scale, 0 is no effect, 100 is complete control) (barnyardgrass [1]; Postemergence, 500 g ai/ha): 80; Plant response rating, Pigweed (pigweed; [8]): 0; Pigweed plant response rating (0 to 100 scale, 0 is no effect, 100 is complete control) (pigweed; Postemergence, 500 g ai/ha): 0; Plant response rating, Pigweed (pigweed; preemergence, 500 g ai/ha): 0; Plant response rating, Wheat (wheat): 0; Wheat plant response rating (0 to 100 scale, 0 is no effect, 100 is complete control) (wheat): 0; Plant response rating, Corn (corn; [9]): 0; Corn plant response rating (0 to 100 scale, 0 is no effect, 100 is complete control) (corn; 500 g ai/ha): 0; Plant response rating, Blackgrass (blackgrass; [9]): 0; Blackgrass plant response rating (0 to 100 scale, 0 is no effect, 100 is complete control) (blackgrass; 500 g ai/ha): 0; Plant response rating, Galium (galium): 0; Galium plant response rating (0 to 100 scale, 0 is no effect, 100 is complete control) (galium): 0; Plant response rating, Rice (rice): 0; Plant response rating, Sedge, Umbrella (sedge, umbrella): 0; Plant response rating, Ducksalad (ducksalad): 60; Plant response rating, Barnyardgrass (barnyardgrass [2]): 30
Cc1cc(C2CNC(=O)C2C(=O)Nc2ccccc2Cl)ccc1F (racemic) [Compound 143] | 60 | 50 | 90 | 30 | 0 | 0 | 30 | 0 | 0 | 0 | 0 | 0 | 0 | 0 | 0 | 30 | 20 | 30 | 90 | 0 | Barnyardgrass plant response rating (0 to 100 scale, 0 is no effect, 100 is complete control) (barnyardgrass [1]; Postemergence, 500 g ai/ha): 90; Plant response rating, Pigweed (pigweed; [8]): 0; Pigweed plant response rating (0 to 100 scale, 0 is no effect, 100 is complete control) (pigweed; Postemergence, 500 g ai/ha): 0; Plant response rating, Pigweed (pigweed; preemergence, 500 g ai/ha): 0; Plant response rating, Wheat (wheat): 0; Wheat plant response rating (0 to 100 scale, 0 is no effect, 100 is complete control) (wheat): 0; Plant response rating, Corn (corn; [9]): 0; Corn plant response rating (0 to 100 scale, 0 is no effect, 100 is complete control) (corn; 500 g ai/ha): 0; Plant response rating, Blackgrass (blackgrass; [9]): 0; Blackgrass plant response rating (0 to 100 scale, 0 is no effect, 100 is complete control) (blackgrass; 500 g ai/ha): 0; Plant response rating, Galium (galium): 0; Galium plant response rating (0 to 100 scale, 0 is no effect, 100 is complete control) (galium): 40; Plant response rating, Rice (rice): 0; Plant response rating, Sedge, Umbrella (sedge, umbrella): 0; Plant response rating, Ducksalad (ducksalad): 100; Plant response rating, Barnyardgrass (barnyardgrass [2]): 35
